Results on one molecule are retold here after US20070054886A1, “Ras antagonists for treating neurodegenerative disorders” (RAMOT AT TEL AVIV UNIVERSITY, LTD., priority 2003, published 2007).

Each structure is given as a SMILES string. Entries after “also recorded” stand apart in the source; their conditions may differ.

The subject of series [1] is mice subjected to closed head injury (CHI). Put plainly: Neurobehavioral evaluation (neurological severity score, NSS) of CHI mice. The class given is in vivo, mouse. From the text:
The neurological severity score (NSS) is a tool for assessing an animal's functional status. It is based on the ability of the animal to perform different motor and behavioral tasks representing motor ability, balancing, and alertness (Beni-Adani et al., 2001). Scores range from zero, achieved by healthy uninjured animals, to a maximum of 10, indicating severe neurological dysfunction, with failure of all tasks. The NSS obtained 1 hr after trauma reflects the initial severity of injury and is inversely correlated with neurological outcome. Animals were evaluated 1 hour after CHI, and again at 24 and 48 hrs and at 5 and 7 days. To assess the effect of FTS on neurological recovery, mice were randomly assigned to treatment with either FTS or vehicle (n=10 per group), administered immediately after the initial NSS evaluation. Each animal was assessed by an observer who was blinded to the treatment it had received. The extent of recovery (ΔNSS) was calculated as the difference between the NSS at 1 hr and at any subsequent time point. Thus, a higher ΔNSS reflects better recovery. This parameter therefore serves as a tool for evaluation of drug effects.

Series [2] deals with primary hippocampal and cortical neuronal cultures. The class given is cell-based, rat. On the procedure: Hippocampal and cortical neuronal cultures were prepared from embryonic rat brain essentially as described by Mattson (Mattson P M, Barger S W, Begley J M and Mark R J, Methods Cell Biol 1995; 46: 187-216). Briefly, Sprague Dawley embryos (17-18 days of gestation) were removed and their brains were dissected under the hood and kept in cold in sterile HEPES buffered Hank's balanced salt solution (HBBS) lacking Ca^2+ and Mg^2+, containing 10 μg/ml gentamicin sulfate. The brain regions under study were dissected and cells were dissociated by mild 0.25% trypsin, counted and the dissociation buffer was replaced by culture medium as detailed in Mattson. The cells were plated on poly-L-lysine ([…] solution) coated 24 well plates in Neurobasal medium (Gibco, Grand Island, N.Y. # 2110 3-049) prepared as detailed in Mattson. Hippocampal or cortical cells were plated at a density of 5×10^5 cells per well in 24 well plates and grown in 1 ml medium. Cultures were a kept in humidified 95%, 5% air/CO2 incubator at 37 C for 7 days and then used for the experiments.
Cells were treated with 25 μM FTS either 24 h prior to glutamate (200 μM) treatment or immediately after glutamate treatment. Assays were performed in triplicates. Twenty-four hours after the glutamate treatment, the cells were subjected to viability-cytotoxicity assay using the Live/Dead reagent kit (L-7013, Molecular Probes) essentially as described by the manufacturer. Fluorescent images for live cells (Syto 10, green) and of dead cells (DEAD red) were collected with appropriate filters within 1 h of staining. The number of live cells was estimated by counting the green-labeled cells in 3 fields in each well. The number of live cells in each of the triplicate experimental samples was averaged. These values were used to estimate the percent of cell death comparing the glutamate treated cells (with or without FTS) to untreated controls. The read labeled dead cells could not be used for accurate estimation of cell death under the conditions used because unsynchronized cell-death leads to disintegration of dead cells resulting in inaccurate estimation of the number of dead cells.
In the typical experiments, either hippocampal or cortical neuronal culture was exposed to 25 μM FTS 24 h prior to the addition of glutamate. […] The cells were then exposed to 200 μM glutamate for 30 min. The medium was replaced by glutamate-free medium and 24 h later the cells were subjected to the Live/Dead assay. […] This level of cell death was used as a reference point in all experiments.

Series [3] concerns rats subjected to closed head injury (CHI). The series is described as follows: Neuroprotection, rat CHI model (NSS). The class given is in vivo. The protocol: Sabra (strain of the Hebrew University) rats (200-220 gr) were used. A weight (200 g) was dropped on the cone fixed on the exposed skull at the site (frontal left cortex) designated for injury (from a height of 20 cm), resulting in a focal injury. A maximal Neurological Severity Score (NSS) of 17 indicates severe neurological dysfunction, with failure of all tasks, whereas a score of zero is achieved by healthy uninjured animals. The NSS at 1 h after trauma reflects the initial severity of injury and is inversely correlated with neurological outcome. […] To assess the effect of FTS on neurological recovery, rats were randomly assigned to either vehicle or FTS treatment, given immediately after the initial NSS evaluation (at 1 hr after CHI). These assessments were performed by an observer blinded to the kind of treatment the animals have received. The extent of recovery (ΔNSS) was calculated as the difference between NSS at 1 hr and that at any later time point: ΔNSS (at time t)=NSS (1 h)−NSS (t).
Thus, the greater ΔNSS reflects greater recovery, and this parameter serves as a tool for evaluation of drug effects.

A short description of series [4]: Pharmacokinetics of [3H]-FTS in the mouse brain. The class given is in vivo. The note with it: [3H]-FTS 3 mg/kg i.p. On the procedure: Farnesyl 1-^3H-thiosalicylic acid ([^3H]-FTS), 12.5 Ci/mmol, 1 mCi/mL, was purchased from American Radiolabeled Chemicals (ARC; St. Louis, Mo., U.S.A.). The labeled drug was isotopically diluted with unlabeled FTS. Mice (ICR strain) were injected i.p. with 0.1 ml of this FTS solution (14.8 μCi, 351 nmol, 3 mg/kg). At each time point (2.5, 5, 10, 20, 60, and 120 min) after the injection, two mice were killed and their brains were removed. The forebrains were washed in PBS, weighed and homogenized, and samples were counted in a scintillation fluid using an LKB β-counter with automatic correction for quenching. Data are expressed as [^3H]-FTS in dpm/g tissue as a function of time.
First it was necessary to determine whether FTS can enter the brain, and if so, whether it can exist there in the micromolar concentration range previously found to be relevant to its efficacy as a Ras inhibitor in vitro (Kloog et al. 1999). To this end, we performed pharmacokinetic experiments in which mice received [^3H]-FTS (3 mg/kg, i.p.), and the amounts of labeled inhibitor in the brain were then determined by counting radioactivity in samples of brain homogenates. […] Based on the specific activity of [^3H]-FTS and assuming a homogeneous distribution in the brain, we estimated that the peak concentration of FTS was 4.5 μM. Thus, under the conditions employed here, it appears that a pharmacologically relevant concentration of FTS in the brain was achieved.

[5] abbreviates: 25 μM FTS 24 h prior to 200 μM glutamate for 30 min, Live/Dead assay 24 h later.
The mark [6] stands for this setting: FTS 5 mg/kg bw ip 1 h after CHI, mean ± SD of 7 rats.

For `CC(C)=CCC/C(C)=C/CC/C(C)=C/CSc1ccccc1C(=O)O` [FTS, farnesyl-thiosalicylic acid], the “median recovery after seven days (ΔNSS)” value in series [1] (mice processed for autoradiography and histology (4 FTS-treated), vehicle 0, p<0.05) stood at 2. Also, the “mean ΔNSS on day 7 after injury” value in series [1] (mice, FTS 5 mg/kg i.p. 1 hr after CHI, n=10, controls 1.7) amounted to 4.2. Moreover, the “NSS 1 hour after injury” value in series [1] (mice, baseline before treatment, FTS-treatment group, n=10, mean±SD, scale 0-10) was 6.7±0.3. In series [1] (mice, single dose FTS 5 mg/kg, up to 7 days after CHI, P<0.0001), the “reduction of CHI-induced neurological deficits / improvement of neurological status (extent of recovery)” value is 60%. The “toxic effects of FTS alone on cultured hippocampal or cortical neurons” value in series [2] is recorded as “no toxic effects”. Further, in series [2] (setting [5]), the “toxic effect of glutamate in cortical cultures” value is on record as “reduced the toxic effect of glutamate” and the “toxic effect of glutamate in hippocampal cultures” value is listed as “markedly reduced”. For the same molecule, the “neuroprotective effect against the glutamate toxicity” value in series [2] (hippocampal and cortical cultures, 25 μM FTS 24 h prior to 200 μM glutamate) was 70%. Besides, the “percent cell death relative to glutamate treated cells (100% cell death)” value in series [2] (hippocampal and cortical cultures, 25 μM FTS 24 h prior to 200 μM glutamate, FIG. 10) is given as 30%. The “Neurological Severity Score (NSS) 1 h” value in series [3] (1 h after CHI, before treatment (baseline), maximal score 17, mean ± SD of 7 rats) amounted to 9.71 ± 1.97. Moreover, in series [3] (setting [6]), the “ΔNSS = NSS (1 h) − NSS (time), 24 h” value amounted to 1.86 ± 1.34 and the “ΔNSS = NSS (1 h) − NSS (time), 3 d” value came out at 3.00 ± 1.29. Moreover, the “ΔNSS = NSS (1 h) − NSS (time), 7 d” value in series [3] (FTS 5 mg/kg bw ip 1 h after CHI, mean ± SD of 7 rats, p = 0.019 vs control) was found to be 5.14 ± 1.07. Also, the “entry of FTS into the brain” value in series [4] (mouse) was “enters the mouse brain; also recorded: crosses the blood-brain barrier”. In addition, in series [4] (mouse forebrain), the “time for which FTS amounts in the brain remain relatively high” value is recorded as “at least 2 hrs” and the “time to peak amounts of FTS in the brain” value fell in the range of 20 to 30 min. Moreover, the “peak concentration of FTS in the brain” value in series [4] (estimated from specific activity assuming homogeneous distribution in the brain) was 4.5 µM.
